According to ChEMBL document CHEMBL5226390, “Synthesis and Structure-Activity Analysis of Icaritin Derivatives as Potential Tumor Growth Inhibitors of Hepatocellular Carcinoma Cells” (J Nat Prod, 2023):
The source made the active and inactive calls. The calls are words filed in the database; no cut-off is given here.

Experiments:
HepG2 [1] = experiment: Induction of apoptosis in human HepG2 cells assessed as viable cells at 2 uM incubated for 48 hrs by AnnexinV-FITC/PI staining based flow cytometry (reference value: 91.1%); type: functional; details: read-out: Activity
HepG2 [2] = experiment: Induction of apoptosis in human HepG2 cells assessed as necrotic cells at 4 uM incubated for 48 hrs by AnnexinV-FITC/PI staining based flow cytometry (reference value: 2.22%); type: functional
HepG2 [3] = experiment: Induction of cell cycle arrest in human HepG2 cells assessed as accumulation of cells at G2/M phase at 8 uM incubated for 48 hrs by PI staining based flow cytometry (reference value: 17.89%); type: functional
HepG2 [4] = experiment: Induction of apoptosis in human HepG2 cells assessed as necrotic cells at 8 uM incubated for 48 hrs by AnnexinV-FITC/PI staining based flow cytometry (reference value: 2.22%); type: functional
HepG2 [5] = experiment: Induction of apoptosis in human HepG2 cells assessed as viable cells at 8 uM incubated for 48 hrs by AnnexinV-FITC/PI staining based flow cytometry (reference value: 91.1%); type: functional; details: read-out: Activity
HepG2 [6] = experiment: Induction of cell cycle arrest in human HepG2 cells assessed as accumulation of cells at G2/M phase at 2 uM incubated for 48 hrs by PI staining based flow cytometry (reference value: 17.89%); type: functional
SMMC-7721 [7] = experiment: Induction of apoptosis in human SMMC-7721 cells assessed as increase in number of detached cells with fewer cells at 2 to 8 uM incubated for 48 hrs by phase contrast microscopy; type: functional, cell-based; details: dose 2-8 µM
HepG2 [8] = experiment: Induction of cell cycle arrest in human HepG2 cells assessed as downregulation of p34 protein expression at 2 to 8 uM incubated for 48 hrs by western blot analysis; type: functional, cell-based; details: dose 2-8 µM
SMMC-7721 [9] = experiment: Induction of apoptosis in human SMMC-7721 cells assessed as necrotic cells at 2 uM incubated for 48 hrs by AnnexinV-FITC/PI staining based flow cytometry (reference value: 12.3%); type: functional
SMMC-7721 [10] = experiment: Induction of cell cycle arrest in human SMMC-7721 cells assessed as accumulation of cells at G0/G1 phase at 4 uM incubated for 48 hrs by PI staining based flow cytometry (reference value: 59.57%); type: functional
SMMC-7721 [11] = experiment: Antiproliferative activity against human SMMC-7721 cells assessed as reduction in cell viability incubated for 48 hrs by MTT assay; type: functional, cell-based; details: Homo sapiens, SMMC-7721, 48 h; read-out: IC50
HepG2 [12] = experiment: Induction of apoptosis in human HepG2 cells assessed as necrotic cells at 2 uM incubated for 48 hrs by AnnexinV-FITC/PI staining based flow cytometry (reference value: 2.22%); type: functional
SMMC-7721 [13] = experiment: Induction of cell cycle arrest in human SMMC-7721 cells assessed as accumulation of cells at S phase at 4 uM incubated for 48 hrs by PI staining based flow cytometry (reference value: 24.94%); type: functional
HepG2 [14] = experiment: Induction of cell cycle arrest in human HepG2 cells assessed as accumulation of cells at G0/G1 phase at 8 uM incubated for 48 hrs by PI staining based flow cytometry (reference value: 64.11%); type: functional
SMMC-7721 [15] = experiment: Induction of apoptosis in human SMMC-7721 cells assessed as chromatin condensation and fragmentation at 2 to 8 uM incubated for 48 hrs by Hoechst 33258 staining based fluorescence microscopic analysis; type: functional, cell-based; details: dose 2-8 µM
HepG2 [16] = experiment: Induction of cell cycle arrest in human HepG2 cells assessed as accumulation of cells at G2/M phase at 4 uM incubated for 48 hrs by PI staining based flow cytometry (reference value: 17.89%); type: functional
HepG2 [17] = experiment: Induction of cell cycle arrest in human HepG2 cells assessed as accumulation of cells at S phase at 2 uM incubated for 48 hrs by PI staining based flow cytometry (reference value: 18%); type: functional
SMMC-7721 [18] = experiment: Induction of apoptosis in human SMMC-7721 cells assessed as necrotic cells at 8 uM incubated for 48 hrs by AnnexinV-FITC/PI staining based flow cytometry (reference value: 12.3%); type: functional
SMMC-7721 [19] = experiment: Induction of cell cycle arrest in human SMMC-7721 cells assessed as accumulation of cells at G2/M phase at 4 uM incubated for 48 hrs by PI staining based flow cytometry (reference value: 15.49%); type: functional
SMMC-7721 [20] = experiment: Induction of apoptosis in human SMMC-7721 cells assessed as viable cells at 2 uM incubated for 48 hrs by AnnexinV-FITC/PI staining based flow cytometry (reference value: 85.1%); type: functional; details: read-out: Activity
HepG2 [21] = experiment: Induction of apoptosis in human HepG2 cells assessed as viable cells at 4 uM incubated for 48 hrs by AnnexinV-FITC/PI staining based flow cytometry (reference value: 91.1%); type: functional; details: read-out: Activity
SMMC-7721 [22] = experiment: Induction of apoptosis in human SMMC-7721 cells assessed as late apoptotic cells at 4 uM incubated for 48 hrs by AnnexinV-FITC/PI staining based flow cytometry (reference value: 1.51%); type: functional
HepG2 [23] = experiment: Induction of cell cycle arrest in human HepG2 cells assessed as upregulation of p21 protein expression at 2 to 8 uM incubated for 48 hrs by western blot analysis; type: functional, cell-based; details: dose 2-8 µM
HepG2 [24] = experiment: Induction of apoptosis in human HepG2 cells assessed as chromatin condensation and fragmentation at 2 to 8 uM incubated for 48 hrs by Hoechst 33258 staining based fluorescence microscopic analysis; type: functional, cell-based; details: dose 2-8 µM
HepG2 [25] = experiment: Induction of apoptosis in human HepG2 cells assessed as early apoptotic cells at 2 uM incubated for 48 hrs by AnnexinV-FITC/PI staining based flow cytometry (reference value: 3.41%); type: functional

Q: For COc1ccc(-c2oc3c(CC=C(C)C)c(OCCN4CCCC4)cc(O)c3c(=O)c2O[C@H]2O[C@H](C)[C@@H](O)[C@H](O)[C@@H]2O)cc1, which viability at 2 µM (HepG2 [1]) is on record?
A: Its viability at 2 µM is 83.3%.

Q: What about the Activity (HepG2 [2]) of the same compound?
A: Its Activity is 3.21%.

Q: What about the Activity (HepG2 [3]) of the same compound?
A: The Activity was 6.39%.

Q: And the Activity (HepG2 [4])?
A: The Activity was 16.7%.

Q: What about the viability at 8 µM (HepG2 [5]) of the same compound?
A: The viability at 8 µM was 62.2%.

Q: And the Activity (HepG2 [6])?
A: The Activity was 17.51%.

Q: And the Activity (SMMC-7721 [7])?
A: Its Activity is “Active”.

Q: And the Activity (HepG2 [8])?
A: Its Activity is “Active”.

Q: What about the Activity (SMMC-7721 [9]) of the same compound?
A: Its Activity is 2.96%.

Q: And the Activity (SMMC-7721 [10])?
A: The Activity was 65.57%.

Q: And the IC50 (SMMC-7721 [11])?
A: Its IC50 is 3.1 µM.

Q: And the Activity (HepG2 [12])?
A: The Activity was 8.93%.

Q: What about the Activity (SMMC-7721 [13]) of the same compound?
A: Its Activity is 19.6%.

Q: And the Activity (HepG2 [14])?
A: Its Activity is 91.15%.

Q: And the Activity (SMMC-7721 [15])?
A: Its Activity is “Active”.

Q: What about the Activity (HepG2 [16]) of the same compound?
A: The Activity was 10.7%.

Q: What about the Activity (HepG2 [17]) of the same compound?
A: Its Activity is 13.7%.

Q: What about the Activity (SMMC-7721 [18]) of the same compound?
A: The Activity was 22.1%.

Q: What about the Activity (SMMC-7721 [19]) of the same compound?
A: Its Activity is 14.83%.

Q: And the viability at 2 µM (SMMC-7721 [20])?
A: The viability at 2 µM was 89.4%.

Q: What about the viability at 4 µM (HepG2 [21]) of the same compound?
A: The viability at 4 µM was 86.2%.

Q: And the Activity (SMMC-7721 [22])?
A: Its Activity is 6.92%.

Q: And the Activity (HepG2 [23])?
A: Its Activity is “Active”.

Q: What about the Activity (HepG2 [24]) of the same compound?
A: Its Activity is “Active”.

Q: And the Activity (HepG2 [25])?
A: The Activity was 1.52%.
